Reference: patent US9029386B2, “Pyridine derivatives useful as kinase inhibitors” (YM Biosciences Australia Pty Ltd, priority 2006, dated 2015)

Molecular target: T1, FLT-3 tyrosine kinase (Homo sapiens, UniProt P36888)
T1 construct: purchased Upstate Cell Signalling Solutions, CA, USA 14-500
T1 sequence (P36888 27-993): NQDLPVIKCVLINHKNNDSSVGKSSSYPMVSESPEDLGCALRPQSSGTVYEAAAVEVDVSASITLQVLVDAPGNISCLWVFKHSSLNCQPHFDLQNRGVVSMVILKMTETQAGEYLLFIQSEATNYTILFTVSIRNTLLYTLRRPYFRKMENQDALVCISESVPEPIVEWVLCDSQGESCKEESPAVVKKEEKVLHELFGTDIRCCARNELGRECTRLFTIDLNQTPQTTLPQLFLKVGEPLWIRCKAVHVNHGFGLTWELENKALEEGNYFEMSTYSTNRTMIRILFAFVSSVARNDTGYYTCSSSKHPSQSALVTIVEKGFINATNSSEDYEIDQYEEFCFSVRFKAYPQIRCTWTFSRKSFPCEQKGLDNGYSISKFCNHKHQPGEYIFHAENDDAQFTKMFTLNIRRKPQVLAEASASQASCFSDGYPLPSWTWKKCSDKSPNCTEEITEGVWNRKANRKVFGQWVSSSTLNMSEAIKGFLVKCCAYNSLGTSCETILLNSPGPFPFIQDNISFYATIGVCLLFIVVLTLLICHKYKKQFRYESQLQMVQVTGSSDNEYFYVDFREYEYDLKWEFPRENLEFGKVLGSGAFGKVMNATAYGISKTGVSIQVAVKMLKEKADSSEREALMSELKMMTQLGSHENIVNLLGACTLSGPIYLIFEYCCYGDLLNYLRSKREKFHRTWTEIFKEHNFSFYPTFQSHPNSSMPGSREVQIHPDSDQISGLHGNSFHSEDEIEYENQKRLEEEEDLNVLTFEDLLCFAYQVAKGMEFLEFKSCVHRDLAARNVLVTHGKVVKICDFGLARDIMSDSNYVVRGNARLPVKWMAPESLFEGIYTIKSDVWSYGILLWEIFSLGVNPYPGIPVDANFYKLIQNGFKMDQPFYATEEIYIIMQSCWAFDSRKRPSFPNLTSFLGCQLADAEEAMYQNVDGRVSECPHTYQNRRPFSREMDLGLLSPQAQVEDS
Assay: Alphascreen protein tyrosine kinase assay, FLT-3
Format: biochemical
Conditions: read-out: Flt3

In the case of `Cc1cccc(C(=O)Nc2cccc([C@H](C)Nc3cncc(-c4ccc(S(N)(=O)=O)cc4)n3)c2)c1` [Compound 77], the IC50 is reported as greater than 10 µM.
